These results are taken from ChEMBL document CHEMBL1156104, “Synthesis and anticancer activity of novel amide derivatives of non-acetal deoxoartemisinin” (Bioorg Med Chem Lett, 2009).

The subject of one experiment is SK-OV-3. Kind of experiment: Anticancer activity against human SKOV3 cells by sulforhodamine B assay. It counts as functional, cell-based. In general terms: The SRB assay estimates cell density from bound dye.
The species entered for a further experiment is Mus musculus. Kind of experiment: Antiangiogenic activity in mouse assessed as inhibition of VEGF-induced angiogenesis at 10 uM by Matrigel plug assay. It is filed as functional.
Another experiment has as its system A549. Kind of experiment: Anticancer activity against human A549 cells by sulforhodamine B assay. It counts as functional, cell-based.
A further experiment concerns HCT-15. Kind of experiment: Anticancer activity against human HCT15 cells by sulforhodamine B assay. It is filed as functional, cell-based.
A further experiment has as its system XF498. Kind of experiment: Anticancer activity against human XF498 cells by sulforhodamine B assay. It counts as functional, cell-based.
The subject of a further experiment is SK-MEL-2. The experiment can be described thus: Anticancer activity against human SK-MEL-2 cells by sulforhodamine B assay. It counts as functional, cell-based.

In general, IC50 refers to the midpoint of a concentration-inhibition curve. With `C[C@@H]1CC[C@H]2[C@H](CBr)CO[C@@H]3O[C@]4(C)CC[C@@H]1[C@]32OO4`, the IC50 came to 15.4 µM with SK-OV-3; 11.2 µM with A549; 11.2 µM in the experiment with HCT-15; 16.4 µM with XF498; 14.2 µM in the experiment with SK-MEL-2. For the same compound, the “inhibition (INH)” value in the experiment listed under Mus musculus was 95%.

As to `COC(=O)[C@@H](CS)N(Cc1ccccc1)C(=O)CC[C@H]1O[C@@H]2O[C@]3(C)CC[C@H]4[C@H](C)CCC([C@H]1C)[C@@]24OO3` (stereo not given in full), the IC50 in the experiment with SK-OV-3 is 2.35 µM; in the experiment on A549, 3.12 µM; in the experiment with HCT-15 it was 1.54 µM; with XF498, 2.66 µM; in the experiment with SK-MEL-2 it was 3.15 µM.

Consider `C[C@@H]1CCC2[C@@H](C)[C@@H](CCC(=O)N3CCC(Cc4ccccc4)CC3)O[C@@H]3O[C@]4(C)CC[C@@H]1[C@@]23OO4` (stereo not given in full), for which the IC50 came to 1.65 µM in the experiment with SK-OV-3; 1.35 µM in the experiment on A549; 1.45 µM in the experiment with HCT-15; 1.95 µM with XF498; 1.25 µM in the experiment with SK-MEL-2.

On to `C[C@@H]1CCC2[C@@H](C)[C@@H](CCNC(=O)CC[C@H](NC(=O)CC[C@H]3O[C@@H]4O[C@]5(C)CC[C@H]6[C@H](C)CCC([C@H]3C)[C@@]46OO5)C(=O)NCC[C@H]3O[C@@H]4O[C@]5(C)CC[C@H]6[C@H](C)CCC([C@H]3C)[C@@]46OO5)O[C@@H]3O[C@]4(C)CC[C@@H]1[C@@]23OO4` (stereo not given in full), for which the IC50 with SK-OV-3 is 12.4 µM; with A549 it was 13.5 µM; in the experiment on HCT-15 it was 19.8 µM; in the experiment with XF498, 11.6 µM; in the experiment on SK-MEL-2 it was 18.2 µM. Moreover, the “inhibition (INH)” value in the experiment filed under Mus musculus came to 80%.

In the case of `C[C@@H]1CCC2[C@@H](C)[C@@H](CCNC(=O)CC[C@H]3O[C@@H]4O[C@]5(C)CC[C@H]6[C@H](C)CCC([C@H]3C)[C@@]46OO5)O[C@@H]3O[C@]4(C)CC[C@@H]1[C@@]23OO4` (stereo not given in full), the IC50 with SK-OV-3 came out at 4.36 µM; in the experiment with A549, 7.63 µM; with HCT-15, 7.83 µM; in the experiment with XF498 it was 5.76 µM; in the experiment with SK-MEL-2 it was 9.94 µM.

Consider `C[C@H]1[C@@H](CCSCC[C@H]2O[C@@H]3O[C@]4(C)CC[C@H]5[C@H](C)CCC([C@H]2C)[C@@]35OO4)O[C@@H]2O[C@]3(C)CCC4[C@H](C)CC[C@@H]1[C@]42OO3` (stereo not given in full), for which the IC50 in the experiment on SK-OV-3 was determined as 4.86 µM; in the experiment on A549 it was 5.63 µM; with HCT-15, 3.53 µM; with XF498, 5.44 µM; with SK-MEL-2, 7.56 µM.

Take `C[C@@H]1CCC2[C@@H](C)[C@@H](CCC(=O)NCCCN3CCN(CCCNC(=O)CC[C@H]4O[C@@H]5O[C@]6(C)CC[C@H]7[C@H](C)CCC([C@H]4C)[C@@]57OO6)CC3)O[C@@H]3O[C@]4(C)CC[C@@H]1[C@@]23OO4` (stereo not given in full): the IC50 in the experiment with SK-OV-3 is 0.63 µM; with A549, 0.85 µM; with HCT-15, 0.84 µM; in the experiment on XF498, 0.46 µM; with SK-MEL-2, 0.45 µM.

For the compound `C[C@@H]1CCC2[C@@H](C)[C@@H](CCC(=O)NCc3ccccc3)O[C@@H]3O[C@]4(C)CC[C@@H]1[C@@]23OO4` (stereo not given in full), the IC50 in the experiment with SK-OV-3 turned out to be 4.75 µM; in the experiment on A549 it was 5.13 µM; in the experiment on HCT-15 it was 6.22 µM; in the experiment with XF498, 3.46 µM; in the experiment with SK-MEL-2, 8.36 µM.

On to `CO[C@H]1O[C@@H]2O[C@@]3(C)CC[C@H]4[C@H](C)CC[C@@H]([C@H]1C)[C@@]24OO3` [ARTEMETHER], for which the IC50 in the experiment on SK-OV-3 was 8.03 µM; in the experiment on A549 it was 8.54 µM; in the experiment with HCT-15, 9.66 µM; in the experiment on XF498 it was 9.1 µM; in the experiment on SK-MEL-2, 7.24 µM.

As for `C[C@@H]1CC[C@H]2[C@@H](C)C(=O)O[C@@H]3O[C@@]4(C)CC[C@@H]1[C@]32OO4` [ARTEMISININ], the IC50 in the experiment on SK-OV-3 was found to be 14.3 µM; in the experiment with A549 it was 15.2 µM; in the experiment on HCT-15, 17.2 µM; with XF498, 16.2 µM; in the experiment with SK-MEL-2, 12.9 µM.

Regarding `C[C@H]1[C@@H](O)O[C@@H]2O[C@@]3(C)CC[C@H]4[C@H](C)CC[C@@H]1[C@@]24OO3` [ARTENIMOL], the IC50 with SK-OV-3 came out at 0.85 µM; with A549, 0.63 µM; with HCT-15 it was 0.46 µM; in the experiment on XF498, 0.54 µM; in the experiment on SK-MEL-2, 0.75 µM.

Turning to `COc1cccc2c1C(=O)c1c(O)c3c(c(O)c1C2=O)C[C@@](O)(C(=O)CO)C[C@@H]3O[C@H]1C[C@H](N)[C@H](O)[C@H](C)O1` [DOXORUBICIN], the IC50 with SK-OV-3 amounted to 0.046 µM; with A549 it was 0.075 µM; in the experiment on SK-MEL-2, 0.028 µM.
